From patent US20100136537A1, “PHOTORECEPTOR PRECURSOR CELLS” (THE REGENTS OF THE UNIVERSITY OF MICHIGAN, priority 2006, published 2010)
“Also recorded” adds a separate entry of the source.

How the values were obtained:
[1] = tested on: mouse Nrl promoter; assay: Nrl promoter-luciferase assay in serum-deprived Y79 cells; type: cell-based, human; conditions: pGL3-NI and pGL3-Nm constructs (with putative RAREs), 10 μM RA, 24 h
From the text: (§1) Plasmid Constructs. DNA fragments of 2.5 kb (Nl), 1.2 kb (Nm), and 200 by (Ns) from the 5′-flanking region of the mouse Nrl promoter (GENBANK: AY526079; (See Akimoto et al., (2006) Proc. Natl. Acad. Sci. U.S.A. 103, 3890-3895) were amplified and cloned into pGL3-basic vector (Promega, Madison, Wis.) in-frame with the luciferase reporter gene. The following site-directed mutants of the Nrl promoter were generated from pGL3-Nl using the QUICKCHANGE site-directed mutagenesis kit (Stratagene, La Jolla, Calif.) and sequence-verified: pGL3-Nl-mutIII-1, pGL3-Nl-mutIII-2, and pGL3-Nl-mutII-1, containing deletion of the putative RAREs at positions −781 to −767, −709 to −700, and −453 to −443, respectively.
Transient Transfection and Luciferase Assay. Transient transfection of Y79 cells was performed using FUGENE 6 reagent (Roche Diagnostics, Indianapolis, Ind.). Prior to transfection, cells were serum-starved 24 h in OPTI-MEM (Invitrogen), diluted to 1.5×10^5 cells in 250 μl and seeded into 24-well plates. Transfection was performed with 0.5 μg of promoter-luciferase construct and 1.5 μl of FUGENE 6. […] Luciferase activity was measured using the Luciferase Assay System (Promega, Madison, Wis.). Experiments were repeated at least three times, and the luciferase activity was calculated as a fold change from the base line luciferase activity obtained in the presence of vector only.

[2] = tested on: NRL; assay: NRL expression in adult pig photoreceptor cultures (immunoblot, immunocytochemistry); conditions: 24 h
[3] = tested on: mouse Nrl promoter; assay: Nrl promoter-luciferase assay in HEK293 cells; type: cell-based; conditions: dose-dependent response
From the text: as §1
Transient transfection of HEK293 (ATCC CRL-1573) cells was performed using LIPOFECTAMINE (Invitrogen) according to the manufacturer's instructions. The wild type and mutant Nrl promoter-luciferase constructs, and pCMV-β-gal were added to the cells at a concentration of 0.1 μg and 0.05 μg, respectively. After 3 h, 100 μl of Dulbecco's modified Eagle's medium with 0 or 500 nM at RA was added to each well. Cells were harvested after 24 h in 100 μl of GLO lysis buffer (Promega), and luciferase activity was measured.

[4] = tested on: NRL; assay: NRL expression in newborn rat retinal cell cultures (immunoblot); type: cell-based
Procedure: Primary cultures of new-born rat retinal cells and enriched adult porcine photoreceptors were prepared as described (See Traverso et al., (2003) Investig. Ophthalmol. Vis. Sci. 44, 4550-4558). For newborn rat retinal cultures, rat pups were anesthetized and decapitated, the retinas dissected into CO2-independent Dulbecco's modified Eagle's medium and chopped into small fragments. The fragments were washed twice in Ca/Mg-free PBS and then digested in PBS containing 0.1% papain for 25 min at 37° C. Tissue was dissociated by repeated passage through flame polished Pasteur pipettes, then seeded into tissue culture plates precoated with laminin, in Neurobasal A medium (Invitrogen) containing 2% FBS. After 48 h, medium was changed to a chemically defined formula (Neurobasal A supplemented with B27) for a further 48 h, and then treated.
Experimental Treatments and Immunochemistry. […] RA was added to test wells (1, 5, 10, 20, and 40 μM, stock solution prepared in Me2SO, 10 μl/well).
(§2) Protein Expression Analysis.

[5] = tested on: NRL; assay: NRL expression in serum-starved Y79 cells (immunoblot, Northern blot); type: cell-based, human; conditions: serum-starved Y79 cells, 10 μM RA
Procedure: Cell Culture. Y79 human retinoblastoma cells (ATCC HTB 18) and HEK293 (ATCC CRL-1573) were maintained in RPMI 1640 and Dulbecco's modified Eagle's medium, respectively, under standard conditions with 15% (v/v) fetal bovine serum (FBS), penicillin G (100 units/ml), and streptomycin (100 μg/ml) at 37° C. and 5% CO2. For serum starvation and RA treatment experiments, Y79 cells (5×10^4) were cultured in the presence or absence of the serum (same batch of serum was used in all the experiments), at RA, 9-cis-RA, cycloheximide (CHX), and 4-(E-2-(5,6,7,8-tetrahydro-5,5,8,8-tetramethyl-2-naphthalenl)-1-propenyl) benzoic acid (TTNPB) at indicated concentrations. Me2SO or ethanol was added to Y79 cells in lieu of the soluble factors as negative control.
For protein synthesis inhibition experiments, Y79 cells were serum-starved for 24 h, and then simultaneously treated with RA and CHX for 8 or 24 h. NRL expression was analyzed by immunoblotting. In another set of experiments, serum-starved Y79 cells were first incubated with RA alone for 8 or 24 h and then CHX was added. Cell extracts were then analyzed 24 h later for examining NRL expression by immunoblotting.
as §2

[6] = tested on: CEP290; conditions: previous studies; cited from earlier work
[7] = tested on: chondroitin sulfate proteoglycans (CSPG); assay: CS-56 staining of glial scar after subretinal injection with or without ChABC; type: in vivo, mouse; conditions: ChABC 0.025 U/μl, 1 μl subretinal, MNU-treated mice
Procedure: Transplantation Procedure. One μl of dissociated Nrl-GFP+ photoreceptor cell suspension (1.0×10^5 cells/μl each) without or with chondroitinase ABC (ChABC) (0.025 U/μl, Wako, Tokyo, Japan) (Nrl group, Nrl/ChABC group, respectively) or 1 μl of PBS (sham group) was drawn into a tapered glass pipette connected to a modified tube and injected through the sclera into the subretinal space. The procedure was performed under surgical microscope.
Immunofluorescence. Sections were washed in PBS, preincubated with a blocking solution (containing 20% skim milk and 0.3% Triton X-100 in PBS) for 30 minutes, and then incubated overnight at 4° C. with primary antibodies diluted in a blocking solution (containing 5% skim milk and 0.3% Triton X-100 in PBS). The primary antibodies and working dilutions were as follows: mouse and rabbit anti-GFP (1:500, Molecular Probes, Eugene, Oreg.), mouse monoclonal CS-56 IgM antibody (1:200, Sigma) that reacts specifically with chondroitin sulfate containing proteoglycans, and anti-vesicular glutamate transporter 1 (VGluT1; 1:100, Chemicon, Hampshire, UK), a marker for active presynaptic formation (See, e.g., Fujiyama et al., J Comp Neurol. 2003; 465:234-249). Sections were incubated for 90 minutes with secondary antibodies diluted 1:500 in PBS containing 5% skim milk and 0.3% Triton X-100. […]

[8] = tested on: photoreceptors; conditions: MNU 60 mg/kg i.p.; cited from earlier work
[9] = tested on: photoreceptors; assay: MNU-induced photoreceptor degeneration in adult C57Bl/6 mice (TUNEL, immunostaining, ERG); type: in vivo, mouse
Procedure: Preparation of Donor Cells and Recipients. Donor cells were prepared from P0-P2 retinas of the neural retina leucine zipper (Nrl)-GFP transgenic mice (See Example 1). Nrl is a basic motif-leucine zipper transcription factor that is preferentially expressed in rod photoreceptors and required for rod differentiation (See, e.g., Swaroop et al., Proc Natl Acad Sci USA. 1992; 89:266-270; and Mears et al., Nat Genet. 2001; 29:447-452). The Nrl promoter directed expression of enhanced green fluorescent protein (EGFP) specifically to new-born rod precursors and mature rods in the Nrl-GFP transgenic mouse. Eyes were enucleated, and the neural retinas dissected and dissociated with a Papain-Protease-DNase solution. N-methyl-N-nitrosourea (MNU; Sigma, St. Louis, Mo.), an alkylating agent that induces photoreceptor degeneration by forming 7-methyldeoxyguanosine DNA adducts in the nuclei of photoreceptors, was administered at a dose of 60 mg/kg to adult C57B1/6 mice by intraperitoneal injection 7 days before transplantation (See, e.g., Doonan et al., J Neurosci. 2003; 23:5723-5731; Ogino et al., Toxicol Pathol. 1993; 21:21-25; Yuge et al., In Vivo. 1996; 10:483-488).
Tissue Processing. Two or four weeks after surgery, the animals were perfused transcardially with 4% paraformaldehyde (Merck, Darmstadt, Germany) in 0.1 M phosphate buffer after sedation with ketamine (15 mg/kg). Eyes were removed and immersion fixed with 4% paraformaldehyde at 4° C. overnight and then in 25% sucrose-PBS to cryoprotect. The specimens were embedded in an optimal cutting temperature compound (Miles, Elkhart, Ind.) and consecutive 12-μm frozen sections were sliced on a cryostat.
Immunofluorescence. […]
Electrophysiology. […] Animals were placed on a regulated heating pad under dim red illumination and electroretinograms (ERGs) were recorded with a gold loop electrode placed on the corneal surface maintained with 3% methylcellulose gel. […] The amplitude of the a-wave was measured from the prestimulus baseline to the a-wave trough. […]

CC1=C(/C=C/C(C)=C/C=C/C(C)=C/C(=O)O)C(C)(C)CCC1 [at RA]
increase in luciferase activity [1]: > 2 fold | RA concentration giving maximal effects on NRL expression [2]: 5 to 20 µM | at RA concentration of maximum effect on pGL3-Nl luciferase activity [3]: 500 nM | toxicity in culture ([4]; doses above 5-20 μM (40 μM RA), newborn rat retina cells): some toxicity; also recorded: toxic for cell survival | RA concentration giving maximal effects on NRL expression ([4]; newborn rat retinal cultures, 24 h): 5 to 20 µM | incubation time after which an increase in NRL protein was observed [5]: 8 h

COC(=O)Nc1nc2ccc(C(=O)c3cccs3)cc2[nH]1 [nocodazole]
centrosomal localization of CEP290 after microtubule depolymerization [6]: does not alter centrosomal localization of CEP290

chondroitinase ABC [ChABC]
degradation of CSPG in the ECM of the glial scar at the injection site (CS-56 staining) [7]: substantially, if not completely, degraded

CN(N=O)C(N)=O [MNU, N-methyl-N-nitrosourea]
time to apoptosis in all photoreceptors after injection [8]: ≤ 1 week | dark-adapted ERG response ([9]; 1 week after single i.p. MNU 60 mg/kg): does not detect a response; also recorded: no responses were detectable | state of outer nuclear layer / photoreceptor layer ([9]; 1 week after single i.p. MNU 60 mg/kg, VGluT1 and Cytox blue staining): completely destroyed; also recorded: essentially destroyed | TUNEL labeling of retina ([9]; 2 days after single i.p. MNU 60 mg/kg): nuclear labeling in the majority of the photoreceptor cells
